# Measured values taken from US20140127231A1, “p38 MAPK Pathway Inhibitors as Female-Specific Therapeutics” (UNIVERSITY OF VERMONT, priority 2012, published 2014).
# Entries after “also recorded” stand apart in the source; their conditions may differ.
# Columns and labels:
# Format in all cases: in vivo, C57BL/6J (B6) mice
# [1] = tested on: TH17 and TH1 cells in CNS-infiltrating cells; assay: CNS-infiltrating cells of treated EAE mice, intracellular cytokine staining and flow cytometry; conditions: female B6 mice treated daily, D30 post-immunization
# Excerpt: (§1) Female B6 mice were immunized for EAE as described for FIG. 1 and treated daily with carrier or SB. On D30 post-immunization, CNS (brain and spinal cord) cells were harvested and analyzed by intracellular staining and flow cytometry. Relative percentages (out of CD4+TCRβ+ population) of IL-17+, IFN-γ+, or IL-17+ IFN-γ+ cells (FIG. 2A), and percentages of CD4+TCRβ+ cells (out of CD45+ cells) (FIG. 2B). DLN cells were collected on D20 and restimulated with MOG35-55 for 3 days. Production of IFN-γ+(FIG. 2C) or IL-17 (FIG. 2D) was assessed by ELISA.
# EAE was induced in female C57BL/6J mice as described previously (Noubade et al., 2007, J Clin Invest., 117(11):3507-3518). Mice were injected subcutaneously with an emulsion containing 200 μg of MOG35-55 peptide ([…] (SEQ ID NO: 1) and complete Freund adjuvant (CFA; Sigma-Aldrich) supplemented with 200 μg of Mycobacterium tuberculosis H37RA (Difco Laboratories) in the posterior right and left flank; 1 week later, all mice were similarly injected at 2 sites on the right and left flank anterior of the initial injection sites (2×MOG35-55+CFA). Mice received 5 mg/kg/d SB203580 dihydrochloride (Tocris) by IP injection in a total volume of 200 μL or an equal volume of carrier every day from the day of immunization.
# Animals were perfused with saline and brains and spinal cords removed. A single-cell suspension was obtained and passed through a 70-μm strainer. Mononuclear cells were obtained by Percoll gradient (37%/70%) centrifugation and collected from the interphase. Cells were washed and stimulated for 4 hours with PMA/ionomycin in the presence of brefeldin A (Golgi Plug; BD Biosciences). […]
# (§2) To examine the mechanism of EAE prevention by SB, the TH1 and TH17 effector subsets were analyzed in treated female mice. […] On D30 post-immunization, CNS (brain and spinal cord) cells were harvested and analyzed by intracellular staining and flow cytometry. […] Draining lymph node (DLN) cells were collected on D20 and restimulated with MOG35-55 for 3 days, and production of IFN-γ and IL-17 was assessed by ELISA.
# [2] = tested on: Draining lymph node (DLN) cells; assay: Draining lymph node cells of treated EAE mice restimulated with MOG35-55, cytokine ELISA; conditions: DLN cells collected D20, restimulated with MOG35-55 for 3 days
# Excerpt: as §1
# EAE was induced in female C57BL/6J mice as described previously (Noubade et al., 2007, J Clin Invest., 117(11):3507-3518). […]
# as §2
# [3] = tested on: experimental autoimmune encephalomyelitis (EAE); assay: Active EAE, 2×MOG35-55/CFA protocol, clinical course (Example 3); conditions: 5 mg/kg/day i.p. daily from day of immunization; for EAE disease course: 5 mg/kg/day
# Procedure: Female (FIG. 15A) and male (FIG. 15B) B6 mice were immunized using the 2×MOG35-55/CFA protocol, followed by daily injections of SB203580 or carrier. Data represent 2 independent experiments, pooled. Data were analyzed as indicated in Materials and Methods. […] For individual time points, * ≦0.05; ** ≦0.01, *** ≦0.001, **** ≦0.0001. Numbers in parentheses indicate the total number of animals studied.
# EAE was induced essentially as described previously (Noubade R, et al., J Clin Invest. 2007 November; 117(11):3507-18). Briefly, mice were injected s.c. with an emulsion containing 100 μg of MOG35-55 peptide ([…]; SEQ ID NO: 1) (Anaspec, USA) and complete Freund's adjuvant (CFA) (Sigma-Aldrich, St. Louis, Mo.) supplemented with 200 μg of Mycobacterium tuberculosis H37Ra (Difco Laboratories, Detroit, Mich.) in the posterior right and left flanks. One week later all mice were similarly injected at two sites on the right and left flank anterior of the initial injection sites (2×MOG35-55/CFA). Alternatively, mice were immunized with 200 μg of MOG35-55 in CFA, followed by i.v. administration of 200 ng pertussis toxin (List Biological) (1×MOG35-55/CFA/PTX). In some experiments (as indicated), mice received 5 mg/kg/day of SB203580 dihydrochloride (Tocris, Ellisville, Mo.) by i.p. injection in a total volume of 200 μl or an equal volume of carrier daily starting on the day of immunization. Mice were scored daily starting at day 10 post-injection as previously described (Noubade R, et al., J Clin Invest. 2007 November; 117(11):3507-18). Passive EAE was induced as follows. […]
# All statistical analyses were performed using GraphPad Prism 6 software (GraphPad Software Inc, San Diego, Calif.). The significance of differences in cytokine production and flow cytometry data were determined using 2-way ANOVA. The significance of differences observed in clinical course of EAE was determined by 2-way ANOVA and post-hoc analysis using Fisher's LSD test for individual time points (significance indicated by “*” above each time point). […] EAE data from replicate experiments were analyzed by heterogeneity testing. […]
structure (smiles),measurement,setting,value
C[S+]([O-])c1ccc(-c2nc(-c3ccncc3)c(-c3ccc(F)cc3)[nH]2)cc1 (centres unmarked) [SB203580],IFN-γ production by TH1 cells,[1]; CNS cells,did not suppress IFN-γ production
same,IL-17 production by TH17 cells,"[1]; CNS cells, listed as SB",inhibits IL-17 production by TH17 cells; also recorded: specifically inhibited IL-17 production; also recorded: only partially inhibits IL-17 production
same,Percentage or number of infiltrating CD4+ T cells in the CNS,[1],did not decrease the percentage or number of infiltrating CD4+ T cells
same,IFN-γ production (ELISA),[2],did not decrease
same,IL-17 production (ELISA),[2],specifically inhibited IL-17 production
same,EAE disease course,[3]; female B6 mice,robustly ameliorated; also recorded: significant difference in EAE course
same,EAE onset,[3]; male B6 mice,accelerated
same,EAE disease course,[3]; male B6 mice,showed no therapeutic efficacy; also recorded: augmented; also recorded: did not reduce EAE
